The kinase profiling compilation of Christmann-Franck et al. (2016)

Key:
Assay in all cases: KINOMEscan competition binding
Conditions in all cases: compound 10.0 µM
[1] = biological target: PRKD2 (human) (UniProt Q9BZL6)
[2] = biological target: MARK2 (human) (UniProt Q7KZI7)
[3] = biological target: CLK1 (human) (UniProt P49759)
[4] = biological target: CDK9 (human) (UniProt P50750)
[5] = biological target: BMPR1B (human) (UniProt O00238)
[6] = biological target: NEK5 (human) (UniProt Q6P3R8)
[7] = biological target: PLK4 (human) (UniProt O00444)
[8] = biological target: MAP3K7 (human) (UniProt O43318)
[9] = biological target: FGR (human) (UniProt P09769)
[10] = biological target: IGF1R (human) (UniProt P08069)
Chain of IGF1R (human) (P08069 whole entry, looked up): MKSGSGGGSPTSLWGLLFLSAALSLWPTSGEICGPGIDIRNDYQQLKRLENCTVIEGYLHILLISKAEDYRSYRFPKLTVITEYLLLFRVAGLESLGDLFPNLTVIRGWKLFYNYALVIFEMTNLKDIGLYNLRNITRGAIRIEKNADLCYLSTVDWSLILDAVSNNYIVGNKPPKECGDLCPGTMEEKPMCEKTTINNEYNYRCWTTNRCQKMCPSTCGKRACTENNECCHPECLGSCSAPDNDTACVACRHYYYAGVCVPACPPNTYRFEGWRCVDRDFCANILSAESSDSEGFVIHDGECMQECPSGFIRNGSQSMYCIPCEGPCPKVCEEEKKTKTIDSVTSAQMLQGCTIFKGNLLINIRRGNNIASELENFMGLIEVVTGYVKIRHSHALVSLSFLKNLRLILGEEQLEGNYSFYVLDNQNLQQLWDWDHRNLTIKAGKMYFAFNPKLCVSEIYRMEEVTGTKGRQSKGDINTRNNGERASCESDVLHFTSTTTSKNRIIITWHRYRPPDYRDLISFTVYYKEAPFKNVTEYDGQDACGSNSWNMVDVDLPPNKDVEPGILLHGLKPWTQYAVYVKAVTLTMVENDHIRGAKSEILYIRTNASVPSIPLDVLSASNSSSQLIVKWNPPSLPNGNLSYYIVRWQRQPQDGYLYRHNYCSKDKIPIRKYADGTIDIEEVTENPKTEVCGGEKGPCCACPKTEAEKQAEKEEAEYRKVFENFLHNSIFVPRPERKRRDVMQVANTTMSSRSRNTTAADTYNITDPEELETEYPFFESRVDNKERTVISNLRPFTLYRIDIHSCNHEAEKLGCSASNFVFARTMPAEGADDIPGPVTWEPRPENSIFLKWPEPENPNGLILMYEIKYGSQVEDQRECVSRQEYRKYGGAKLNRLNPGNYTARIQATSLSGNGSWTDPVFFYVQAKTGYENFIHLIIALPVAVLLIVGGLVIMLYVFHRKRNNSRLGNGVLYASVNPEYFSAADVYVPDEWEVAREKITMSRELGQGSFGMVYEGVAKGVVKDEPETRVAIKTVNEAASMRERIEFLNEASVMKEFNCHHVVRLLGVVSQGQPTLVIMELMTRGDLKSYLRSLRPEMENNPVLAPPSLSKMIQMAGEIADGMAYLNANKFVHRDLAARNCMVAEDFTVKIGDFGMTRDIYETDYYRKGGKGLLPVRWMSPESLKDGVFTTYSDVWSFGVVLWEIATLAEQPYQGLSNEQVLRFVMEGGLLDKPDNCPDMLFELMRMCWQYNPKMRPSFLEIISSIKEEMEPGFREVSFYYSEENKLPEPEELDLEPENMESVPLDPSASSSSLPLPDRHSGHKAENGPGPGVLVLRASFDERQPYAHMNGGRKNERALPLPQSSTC

[11] = biological target: AURKC (human) (UniProt Q9UQB9)
[12] = biological target: STK3 (human) (UniProt Q13188)
[13] = biological target: RPS6KA6 KD2 (human) (UniProt Q9UK32)
[14] = biological target: PTK2 (human) (UniProt Q05397)
[15] = biological target: IKBKE (human) (UniProt Q14164)
[16] = biological target: CAMK1D (human) (UniProt Q8IU85)
[17] = biological target: CAMK2B (human) (UniProt Q13554)
[18] = biological target: CDK15 (human) (UniProt Q96Q40)
Chain of CDK15 (human) (Q96Q40 whole entry, looked up): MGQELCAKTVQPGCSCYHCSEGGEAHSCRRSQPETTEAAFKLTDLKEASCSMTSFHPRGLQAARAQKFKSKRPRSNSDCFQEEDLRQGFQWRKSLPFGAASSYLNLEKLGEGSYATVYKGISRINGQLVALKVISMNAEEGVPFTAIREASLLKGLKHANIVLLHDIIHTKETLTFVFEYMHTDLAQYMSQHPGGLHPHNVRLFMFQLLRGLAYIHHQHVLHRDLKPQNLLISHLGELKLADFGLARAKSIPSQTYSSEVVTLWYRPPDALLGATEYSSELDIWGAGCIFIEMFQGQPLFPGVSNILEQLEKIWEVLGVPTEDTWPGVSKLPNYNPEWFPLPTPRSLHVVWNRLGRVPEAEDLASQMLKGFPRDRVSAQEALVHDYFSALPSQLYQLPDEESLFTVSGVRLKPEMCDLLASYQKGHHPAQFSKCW

[19] = biological target: JAK1 JH1 catalytic (human) (UniProt P23458)
[20] = biological target: SLK (human) (UniProt Q9H2G2)
[21] = biological target: MINK1 (human) (UniProt Q8N4C8)
[22] = biological target: DCLK1 (human) (UniProt O15075)
[23] = biological target: PKMYT1 (human) (UniProt Q99640)
Chain of PKMYT1 (human) (Q99640 whole entry, looked up): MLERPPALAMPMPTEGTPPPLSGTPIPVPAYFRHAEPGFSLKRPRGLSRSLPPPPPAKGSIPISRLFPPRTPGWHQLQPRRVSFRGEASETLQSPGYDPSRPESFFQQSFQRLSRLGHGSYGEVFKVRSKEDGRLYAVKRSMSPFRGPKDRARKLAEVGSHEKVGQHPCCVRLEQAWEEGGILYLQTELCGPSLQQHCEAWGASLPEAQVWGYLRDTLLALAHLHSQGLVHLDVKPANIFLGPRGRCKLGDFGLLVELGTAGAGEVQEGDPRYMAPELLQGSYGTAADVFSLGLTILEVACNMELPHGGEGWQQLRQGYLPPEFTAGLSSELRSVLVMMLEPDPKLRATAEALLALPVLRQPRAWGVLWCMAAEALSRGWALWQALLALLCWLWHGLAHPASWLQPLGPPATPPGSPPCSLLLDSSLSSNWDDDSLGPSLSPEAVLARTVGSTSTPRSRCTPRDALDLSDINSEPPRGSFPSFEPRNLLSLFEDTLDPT

[24] = biological target: RPS6KA6 KD1 (human) (UniProt Q9UK32)
[25] = biological target: SIK3 (human) (UniProt Q9Y2K2)
[26] = biological target: TYK2 JH1 catalytic (human) (UniProt P29597)
[27] = biological target: PI4KB (human) (UniProt Q9UBF8)
[28] = biological target: TIE1 (human) (UniProt P35590)
[29] = biological target: STK32C (human) (UniProt Q86UX6)
[30] = biological target: ULK2 (human) (UniProt Q8IYT8)
[31] = biological target: PIM3 (human) (UniProt Q86V86)
[32] = biological target: CLK4 (human) (UniProt Q9HAZ1)
[33] = biological target: TXK (human) (UniProt P42681)
[34] = biological target: CDK18 (human) (UniProt Q07002)
Chain of CDK18 (human) (Q07002 whole entry, looked up): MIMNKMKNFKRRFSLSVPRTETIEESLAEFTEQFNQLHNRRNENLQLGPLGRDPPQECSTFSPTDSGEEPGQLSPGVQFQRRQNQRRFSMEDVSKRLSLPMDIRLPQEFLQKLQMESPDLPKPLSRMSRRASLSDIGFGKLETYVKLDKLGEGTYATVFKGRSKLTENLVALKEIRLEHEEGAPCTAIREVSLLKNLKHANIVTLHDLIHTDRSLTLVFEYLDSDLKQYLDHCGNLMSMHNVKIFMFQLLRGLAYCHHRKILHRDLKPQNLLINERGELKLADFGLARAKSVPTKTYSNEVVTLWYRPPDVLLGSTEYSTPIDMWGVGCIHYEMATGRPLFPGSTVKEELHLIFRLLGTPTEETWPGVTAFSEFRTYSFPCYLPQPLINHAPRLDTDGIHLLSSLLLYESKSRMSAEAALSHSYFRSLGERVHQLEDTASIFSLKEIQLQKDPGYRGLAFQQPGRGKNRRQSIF

[35] = biological target: MAP2K1 (human) (UniProt Q02750)
Chain of MAP2K1 (human) (Q02750 whole entry, looked up): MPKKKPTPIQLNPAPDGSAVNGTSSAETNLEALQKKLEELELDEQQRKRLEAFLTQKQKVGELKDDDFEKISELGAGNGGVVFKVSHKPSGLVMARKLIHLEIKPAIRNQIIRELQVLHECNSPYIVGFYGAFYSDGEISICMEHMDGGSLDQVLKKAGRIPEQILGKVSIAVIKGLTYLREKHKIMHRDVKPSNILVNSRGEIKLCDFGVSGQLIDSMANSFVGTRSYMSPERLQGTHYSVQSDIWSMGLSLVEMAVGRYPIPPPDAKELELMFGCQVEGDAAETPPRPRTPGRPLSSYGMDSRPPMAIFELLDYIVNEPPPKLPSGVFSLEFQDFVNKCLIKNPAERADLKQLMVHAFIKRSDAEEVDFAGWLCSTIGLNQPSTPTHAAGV

[36] = biological target: CAMK4 (human) (UniProt Q16566)
Chain of CAMK4 (human) (Q16566 whole entry, looked up): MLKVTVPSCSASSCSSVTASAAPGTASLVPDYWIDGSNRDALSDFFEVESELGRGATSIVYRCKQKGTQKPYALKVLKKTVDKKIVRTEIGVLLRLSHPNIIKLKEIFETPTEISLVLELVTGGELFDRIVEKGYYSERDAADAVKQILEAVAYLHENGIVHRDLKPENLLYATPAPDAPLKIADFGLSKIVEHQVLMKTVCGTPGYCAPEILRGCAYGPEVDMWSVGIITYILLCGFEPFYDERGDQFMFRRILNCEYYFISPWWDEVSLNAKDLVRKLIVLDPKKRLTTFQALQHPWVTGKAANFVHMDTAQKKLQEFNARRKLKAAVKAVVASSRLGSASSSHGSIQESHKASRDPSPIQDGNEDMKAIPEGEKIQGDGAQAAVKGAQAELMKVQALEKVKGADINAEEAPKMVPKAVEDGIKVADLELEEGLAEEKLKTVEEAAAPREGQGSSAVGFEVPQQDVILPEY

[37] = biological target: CAMK1G (human) (UniProt Q96NX5)
[38] = biological target: TAOK2 (human) (UniProt Q9UL54)
[39] = biological target: NEK4 (human) (UniProt P51957)
[40] = biological target: CDKL1 (human) (UniProt Q00532)

Chain of PRKD2 (human) (Q9BZL6 whole entry, looked up): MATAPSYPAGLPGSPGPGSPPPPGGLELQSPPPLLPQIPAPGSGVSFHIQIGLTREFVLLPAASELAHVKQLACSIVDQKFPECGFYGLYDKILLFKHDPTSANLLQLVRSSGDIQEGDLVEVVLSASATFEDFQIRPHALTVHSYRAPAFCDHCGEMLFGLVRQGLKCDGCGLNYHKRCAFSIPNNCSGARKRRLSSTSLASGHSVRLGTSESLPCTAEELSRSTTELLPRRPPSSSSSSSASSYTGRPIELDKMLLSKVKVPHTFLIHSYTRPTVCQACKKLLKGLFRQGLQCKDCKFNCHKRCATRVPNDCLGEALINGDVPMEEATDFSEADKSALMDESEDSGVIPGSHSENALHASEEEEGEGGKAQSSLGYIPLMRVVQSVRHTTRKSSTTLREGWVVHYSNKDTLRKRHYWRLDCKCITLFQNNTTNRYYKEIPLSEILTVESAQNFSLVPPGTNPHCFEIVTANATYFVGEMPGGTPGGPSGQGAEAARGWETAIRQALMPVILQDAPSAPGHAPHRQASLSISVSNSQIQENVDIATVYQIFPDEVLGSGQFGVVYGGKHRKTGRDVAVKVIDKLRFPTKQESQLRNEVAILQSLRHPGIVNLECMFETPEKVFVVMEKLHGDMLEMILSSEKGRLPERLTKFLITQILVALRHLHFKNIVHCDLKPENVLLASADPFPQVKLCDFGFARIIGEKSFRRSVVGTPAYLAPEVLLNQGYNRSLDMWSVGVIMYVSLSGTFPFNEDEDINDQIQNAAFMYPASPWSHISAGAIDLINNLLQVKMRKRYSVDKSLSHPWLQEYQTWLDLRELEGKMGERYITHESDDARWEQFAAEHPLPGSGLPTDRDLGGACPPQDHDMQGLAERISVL

| Structure (SMILES) | kinase still bound, per cent of control [1] | kinase still bound, per cent of control [2] | kinase still bound, per cent of control [3] | kinase still bound, per cent of control [4] | kinase still bound, per cent of control [5] | kinase still bound, per cent of control [6] | kinase still bound, per cent of control [7] | kinase still bound, per cent of control [8] | kinase still bound, per cent of control [9] | kinase still bound, per cent of control [10] | kinase still bound, per cent of control [11] | kinase still bound, per cent of control [12] | kinase still bound, per cent of control [13] | kinase still bound, per cent of control [14] | kinase still bound, per cent of control [15] | kinase still bound, per cent of control [16] | kinase still bound, per cent of control [17] | kinase still bound, per cent of control [18] | kinase still bound, per cent of control [21] | kinase still bound, per cent of control [22] | also measured |
| --- | --- | --- | --- | --- | --- | --- | --- | --- | --- | --- | --- | --- | --- | --- | --- | --- | --- | --- | --- | --- | --- |
| Cc1cn(-c2cc(C(=O)Nc3ccc(C)c(NC(=O)c4ccno4)c3)cc(C(F)(F)F)c2)cn1 | 100% | 100% | 100% | 100% | 100% | 100% | 100% | 100% | 23% | 100% | 100% | 100% | 100% | 100% | 100% | 100% | 100% | 100% | 100% | 100% | kinase still bound, per cent of control [19]: 100%; kinase still bound, per cent of control [20]: 100%; kinase still bound, per cent of control [23]: 100%; kinase still bound, per cent of control [24]: 100%; kinase still bound, per cent of control [25]: 100%; kinase still bound, per cent of control [26]: 100%; kinase still bound, per cent of control [27]: 100%; kinase still bound, per cent of control [28]: 100%; kinase still bound, per cent of control [29]: 100%; kinase still bound, per cent of control [30]: 100%; kinase still bound, per cent of control [31]: 100%; kinase still bound, per cent of control [32]: 100%; kinase still bound, per cent of control [33]: 12%; kinase still bound, per cent of control [34]: 100%; kinase still bound, per cent of control [35]: 100%; kinase still bound, per cent of control [36]: 100%; kinase still bound, per cent of control [37]: 100% |
| COc1cc(N2CCC(C(N)=O)CC2)ccc1Nc1nc(N)c(Cl)c(Nc2ccccc2S(=O)(=O)C(C)C)n1 | 100% | 100% | 0.7% | 100% | 100% | 100% | 2.8% | 100% | 100% | 0.65% | 100% | 100% | 9% | 0% | 100% | 100% | 100% | 100% | 100% | 18% | kinase still bound, per cent of control [19]: 100%; kinase still bound, per cent of control [20]: 2.6%; kinase still bound, per cent of control [23]: 100%; kinase still bound, per cent of control [24]: 100%; kinase still bound, per cent of control [26]: 100%; kinase still bound, per cent of control [28]: 29%; kinase still bound, per cent of control [29]: 33%; kinase still bound, per cent of control [30]: 100%; kinase still bound, per cent of control [31]: 100%; kinase still bound, per cent of control [32]: 5.5%; kinase still bound, per cent of control [33]: 100%; kinase still bound, per cent of control [34]: 100%; kinase still bound, per cent of control [35]: 100%; kinase still bound, per cent of control [36]: 13%; kinase still bound, per cent of control [37]: 100% |
| CCOc1cc(N2CCC(O)CC2)ccc1Nc1ncc2c(n1)N(C)c1ccccc1C(=O)N2C | 100% | 100% | 100% | 100% | 100% | 100% | 2.8% | 100% | 100% | 100% | 100% | 100% | 31% | 100% | 100% | 100% | 100% | 100% | 100% | 0.9% | kinase still bound, per cent of control [19]: 100%; kinase still bound, per cent of control [20]: 100%; kinase still bound, per cent of control [23]: 100%; kinase still bound, per cent of control [24]: 100%; kinase still bound, per cent of control [25]: 100%; kinase still bound, per cent of control [26]: 100%; kinase still bound, per cent of control [27]: 100%; kinase still bound, per cent of control [28]: 100%; kinase still bound, per cent of control [29]: 100%; kinase still bound, per cent of control [30]: 100%; kinase still bound, per cent of control [31]: 100%; kinase still bound, per cent of control [32]: 100%; kinase still bound, per cent of control [33]: 100%; kinase still bound, per cent of control [34]: 100%; kinase still bound, per cent of control [35]: 100%; kinase still bound, per cent of control [36]: 100%; kinase still bound, per cent of control [37]: 100% |
| CC(=O)c1c(C)c2cnc(Nc3ccc(N4CCNCC4)cn3)nc2n(C2CCCC2)c1=O | 0.7% | 28% | 1.2% | 27% | 50% | 27% | 3.2% | 7.9% | 71% | 81% | 96% | 59% | 38% | 61% | 22% | 7.3% | 4.4% | 39% | 7.6% | 2.9% | kinase still bound, per cent of control [38]: 30%; kinase still bound, per cent of control [39]: 20%; kinase still bound, per cent of control [23]: 77%; kinase still bound, per cent of control [24]: 20%; kinase still bound, per cent of control [25]: 100%; kinase still bound, per cent of control [26]: 18%; kinase still bound, per cent of control [29]: 94%; kinase still bound, per cent of control [30]: 0%; kinase still bound, per cent of control [31]: 82%; kinase still bound, per cent of control [32]: 2%; kinase still bound, per cent of control [34]: 20%; kinase still bound, per cent of control [40]: 35%; kinase still bound, per cent of control [35]: 20%; kinase still bound, per cent of control [37]: 20% |
